# Values joined by “and” are separate entries in the source; they are usually repeats but may differ in a detail not shown here. Equal entries are not always repeated. Where two headings read alike, the source gives them in different places.
# Tests used:
# PBMCs = test: Cell viability by trypan blue staining after 24 hours; type: cell-based, human; conditions: for Viability (dose-response): 1 participant per drug, in % (unit assumed)
# Procedure: (§1) Figure 1 Screening of candidate LPAs by measuring the change in multiply spliced HIV transcripts after activation. Each drug was tested in PBMCs from 2 ART-suppressed study participants (denoted in the legend by varying symbol shapes). PBMCs were aliquoted into wells at 6 × 10^6 cells/well. After activation, the cells were cultured with antiretrovirals in the presence of individual drugs in DMSO or DMSO alone as control. All conditions were tested in the presence of CD3/28 T cell–activating beads, except for the unactivated DMSO condition. (A) After 24 hours, the viability was measured by trypan blue staining and then normalized to the levels of the activated DMSO (% of activated DMSO). Bars indicate medians. (B) Total cellular RNA was extracted, and the levels of multiply spliced HIV transcripts (TatRev) were measured by RT-ddPCR, normalized to 1 μg of total cellular RNA, and expressed as a percentage of the activated DMSO control (% of activated DMSO). RT-dd, reverse transcription digital droplet; vRNA, viral RNA; HAT, histone acetyltransferase.
# For quantification of cell-associated HIV transcripts, PBMCs were harvested either after 24 hours or after 6 days. The cell viabilities were measured by trypan blue staining; then the cells were pelleted by centrifuging at 300g for 6 minutes and stored at –80°C. For quantification of virion-associated HIV RNA, cell culture supernatant was collected from 6 × 10^6 PBMCs that were treated and activated for 6 days as described above. Residual cells and cellular debris were subsequently removed from the supernatant by differential centrifugation (300g for 6 minutes, then 20,000g for 10 minutes), and the supernatant was stored at –80°C.
# [1] = tested on: HIV transcripts (PolyA, TatRev); test: Dose-response curves of LPAs: polyadenylated and multiply spliced HIV transcripts 24 hours after activation; type: cell-based; conditions: for IC50: Human immunodeficiency virus 1, PBMC, 24 h, PBMCs from 1 participant per drug; for MS Tat-Rev (dose-response) / PolyA (dose-response): 24 hours, 1 participant per drug
# Procedure: The IC50 was determined based on the reduction in completed (PolyA) as well as multiply spliced (TatRev) HIV transcripts relative to activated DMSO (Table 1).
# Figure 2 Dose-response curves of LPAs. Dose-response curves for each drug were generated in PBMCs from 1 ART-suppressed study participant per drug. PBMCs were aliquoted into wells at 6 × 10^6 cells/well, activated, and cultured with antiretrovirals in the presence of DMSO alone (no drug) or varying concentrations of individual drugs in DMSO. After 24 hours, the levels of polyadenylated and multiply spliced HIV transcripts were quantified by RT-ddPCR, normalized to 1 μg of total cellular RNA, and expressed as a percentage of the activated DMSO control (% of activated DMSO).
# [2] = tested on: HIV transcripts (TAR, LLTR, Pol, PolyA, TatRev); test: Latency reversal assay: cell-associated HIV transcripts (RT-ddPCR) 24 hours after anti-CD3/CD28 activation of PBMCs from ART-suppressed PWH; type: cell-based; design: key to TatRev: % of activated DMSO control, normalized to 1 μg total RNA; Elongated (LLTR) HIV transcripts, median relative to activated DMSO, initial screening / Midtranscribed (Pol) HIV transcripts, median relative to activated DMSO, initial screening / Multiply spliced (TatRev) HIV transcripts, median relative to activated DMSO, initial screening: concentration or dose not given beside the values; conditions: for HIV transcriptional elongation, ratio LLTR/TAR: Figure 3B; for Elongated (LLTR) HIV transcripts, median relative to activated DMSO, initial screening / Midtranscribed (Pol) HIV transcripts, median relative to activated DMSO, initial screening: Supplemental Figure 2; for Pol HIV transcripts (DMSO αCD3/28 = 100) / PolyA HIV transcripts (DMSO αCD3/28 = 100) / TatRev HIV transcripts (DMSO αCD3/28 = 100): αCD3/28-activated, ruxolitinib 4μM, triptolide 25-50nM, alvocidib 40nM, dinaciclib 8nM, AZD4573 8nM, quercetin 5μM, pladienolide B 10nM, isoginkgetin 25μM, herboxidiene 5nM, KRIBB11 2.5μM, tanespimycin 5μM, mithramycin A 25nM; for PolyA/LLTR / TatRev/PolyA / LLTR/TAR: DMSO+CD3/28 = 1, Fig 3B, C and D; for PolyA / TatRev: DMSO+αCD3/28 = 100, Fig 3A
# Procedure: We selected 26 small molecules targeting pathways implicated in HIV transcription or the blocks to HIV transcription underlying latency (Supplemental Table 1). […] Initial screening of all drugs was performed in freshly isolated PBMCs from 2 ART-suppressed individuals (Figure 1 and Supplemental Figure 2). PBMCs were cultured in the presence of individual drugs in DMSO or DMSO alone as a control, subsequently activated (anti-CD3/CD28), and harvested after 24 hours. […] The progression through different blocks to HIV transcription was quantified by measuring the levels of initiated (TAR), 5′ elongated (LLTR), midtranscribed/unspliced (Pol), completed (PolyA), and multiply spliced (TatRev) HIV transcripts. The levels of those HIV transcripts were normalized to 1 μg of total cellular RNA (to normalize for the effect of the drug on global cellular transcription) and expressed as a percentage of the activated DMSO control.
# as §1
# The ability of our candidate LPAs to inhibit HIV transcriptional progression after activation was examined in PBMCs from a minimum of 7 PWH per drug tested (Figure 3). PBMCs were cultured in the presence of individual drugs in DMSO or in DMSO alone as a control, subsequently activated (anti-CD3/CD28), and harvested after 24 hours.
# Each drug was tested in PBMCs from 7 ART-suppressed study participants. The PBMCs were aliquoted into wells at 6 × 10^6 cells/well. After activation, the cells were cultured with antiretrovirals in the presence of individual drugs in DMSO or DMSO alone as control. All conditions were tested in the presence of CD3/28 T cell–activating beads, except for the unactivated DMSO condition. After 24 hours, total RNA was extracted, and the progression through different stages of HIV transcription was quantified by measuring the levels of initiated (TAR), 5′ elongated (LLTR), midtranscribed/unspliced (Pol), completed (PolyA), and multiply spliced (TatRev) HIV transcripts. (A) The levels of all HIV transcripts were normalized to 1 μg of total cellular RNA and expressed as a percentage of the activated DMSO control (% of activated DMSO). Medians are shown as well as the individual values per study participant in different colors. (B–D) The effect of each drug on HIV transcriptional progression after activation was analyzed by the ratio of one HIV transcript to another. Ratios are independent of HIV infection frequency or normalization to cell numbers. Shown are the proportion of (B) all HIV transcripts that were elongated (LLTR/TAR), (C) elongated HIV transcripts that were completed spliced (PolyA/LLTR), and (D) completed transcripts that were multiply spliced (TatRev/PolyA).
# [3] = 24 hours, compared with activated DMSO
# [4] = initial screening, 2 participants, 24 hours
# [5] = 2.5μM, 24 h after αCD3/28 activation, each column one participant
smiles,measurement,setting,value
O=c1c(O)c(-c2ccc(O)c(O)c2)oc2cc(O)cc(O)c12 [quercetin],Viability (dose-response),PBMCs; dose 5 µM,87.619
same,Viability (dose-response),PBMCs; dose 10 µM,77.686
same,Viability (Fig 1A),PBMCs; study participant 150a,100.02 % of activated DMSO
same,Viability (Fig 1A),PBMCs; study participant 152,90.16 % of activated DMSO
same,IC50,"[1]; reduction in PolyA HIV transcripts relative to activated DMSO, read-out: Completed (PolyA) IC50",1410 nM
same,IC50,"[1]; reduction in TatRev HIV transcripts relative to activated DMSO, read-out: Multiply spliced (TatRev) IC50",1130 nM
same,MS Tat-Rev (dose-response),[1]; dose 5 µM,15.52 % of activated DMSO
same,PolyA (dose-response),[1]; dose 5 µM,17.57 % of activated DMSO
same,MS Tat-Rev (dose-response),[1]; dose 10 µM,14.99 % of activated DMSO
same,PolyA (dose-response),[1]; dose 10 µM,19.46 % of activated DMSO
C=CCNC1=C2C[C@@H](C)C[C@H](OC)[C@H](O)[C@@H](C)/C=C(\C)[C@H](OC(N)=O)[C@@H](OC)/C=C\C=C(/C)C(=O)NC(=CC1=O)C2=O [tanespimycin],"HIV transcriptional elongation, ratio LLTR/TAR",[2]; [3],inhibited
same,"Elongated (LLTR) HIV transcripts, median relative to activated DMSO, initial screening",[2]; [4],49%
same,"Midtranscribed (Pol) HIV transcripts, median relative to activated DMSO, initial screening",[2]; [4],31%
same,Viability (Fig 1A),PBMCs; study participant 150b,104.931 % of activated DMSO
same,Viability (Fig 1A),PBMCs; study participant 2147b,92.78 % of activated DMSO
CNc1ccc([N+](=O)[O-])c(Nc2ccc3[nH]ncc3c2)n1 [KRIBB11],LLTR HIV transcripts (DMSO+αCD3/28 = 100),[2]; [5],71.02 and 48.35 and 38.5 and 36.33 and 35.09 and 15.92 and 24.32
same,Pol HIV transcripts (DMSO+αCD3/28 = 100),[2]; [5],19.01 and 13.73 and 14.61 and 76.94 and 12.5 and 1.36 and 0
same,TAR HIV transcripts (DMSO+αCD3/28 = 100),[2]; [5],122.57 and 166.06 and 91.93 and 75.64
same,TatRev HIV transcripts (DMSO+αCD3/28 = 100),[2]; [5],11.03 and 9.21 and 38.96 and 12.13 and 2.02 and 0 and 8.77
same,"HIV transcriptional elongation, ratio LLTR/TAR",[2]; [3],inhibited
same,"HIV transcriptional completion, ratio PolyA/LLTR","[2]; 24 hours, compared with activated DMSO, Figure 3C",reduced completion
same,Reduction of multiply spliced or completed HIV transcripts in drug screen (selection as candidate LPA),[2]; [4],more than 50%
same,"Elongated (LLTR) HIV transcripts, median relative to activated DMSO, initial screening",[2]; [4],60%
same,"Midtranscribed (Pol) HIV transcripts, median relative to activated DMSO, initial screening",[2]; [4],16%
same,Pol HIV transcripts (DMSO αCD3/28 = 100),[2]; participant 2027,73.68
same,PolyA HIV transcripts (DMSO αCD3/28 = 100),[2]; participant 2027,106.67
same,TatRev HIV transcripts (DMSO αCD3/28 = 100),[2]; participant 2027,11.11
same,Pol HIV transcripts (DMSO αCD3/28 = 100),[2]; participant 2147a,33.33
same,PolyA HIV transcripts (DMSO αCD3/28 = 100),[2]; participant 2147a,22.8
same,TatRev HIV transcripts (DMSO αCD3/28 = 100),[2]; participant 2147a,46.99
same,Pol HIV transcripts (DMSO αCD3/28 = 100),[2]; participant 2256,169.23
same,PolyA HIV transcripts (DMSO αCD3/28 = 100),[2]; participant 2256,89.76
same,TatRev HIV transcripts (DMSO αCD3/28 = 100),[2]; participant 2256,84.19
same,PolyA HIV transcripts (DMSO αCD3/28 = 100),[2]; participant 2461,176.92
same,Pol HIV transcripts (DMSO αCD3/28 = 100),[2]; participant 2747,8.97
same,PolyA HIV transcripts (DMSO αCD3/28 = 100),[2]; participant 2747,19.67
same,TatRev HIV transcripts (DMSO αCD3/28 = 100),[2]; participant 2747,30
same,Multiply spliced HIV transcripts (TatRev) (Fig 1B),"[2]; study participant 150a, 24 hours",11.03 % of activated DMSO
same,PolyA/LLTR,[2]; study participant 150a,0.3562
same,TatRev/PolyA,[2]; study participant 150a,0.4361
same,PolyA,[2]; study participant 150a,25.3
same,TatRev,[2]; study participant 150a,11.03
same,Multiply spliced HIV transcripts (TatRev) (Fig 1B),"[2]; study participant 152, 24 hours",9.21 % of activated DMSO
same,PolyA/LLTR,[2]; study participant 152,0.4136
same,TatRev/PolyA,[2]; study participant 152,0.4605
same,PolyA,[2]; study participant 152,20
same,TatRev,[2]; study participant 152,9.21
same,PolyA/LLTR,[2]; study participant 163,0.6494
same,TatRev/PolyA,[2]; study participant 163,1.558
same,PolyA,[2]; study participant 163,25
same,TatRev,[2]; study participant 163,38.96
same,LLTR/TAR,[2]; study participant 1379,0.1731
same,PolyA/LLTR,[2]; study participant 1379,0.3046
same,TatRev/PolyA,[2]; study participant 1379,0
same,PolyA,[2]; study participant 1379,4.85
same,TatRev,[2]; study participant 1379,0
same,LLTR/TAR,[2]; study participant 2147b,0.3199
same,PolyA/LLTR,[2]; study participant 2147b,0.5626
same,TatRev/PolyA,[2]; study participant 2147b,0.4866
same,PolyA,[2]; study participant 2147b,34.68
same,TatRev,[2]; study participant 2147b,12.13
same,LLTR/TAR,[2]; study participant 2256,0.2113
same,PolyA/LLTR,[2]; study participant 2256,0.2703
same,TatRev/PolyA,[2]; study participant 2256,0.2127
same,PolyA,[2]; study participant 2256,9.49
same,TatRev,[2]; study participant 2256,2.02
same,LLTR/TAR,[2]; study participant 5557,0.3215
same,PolyA/LLTR,[2]; study participant 5557,0.6238
same,TatRev/PolyA,[2]; study participant 5557,0.5784
same,PolyA,[2]; study participant 5557,15.17
same,TatRev,[2]; study participant 5557,8.77
same,Viability (Fig 1A),PBMCs; study participant 150a,102.97 % of activated DMSO
same,Viability (Fig 1A),PBMCs; study participant 152,101.83 % of activated DMSO

# Source: PMC11466185, “Mechanisms and efficacy of small molecule latency-promoting agents to inhibit HIV reactivation ex vivo” (JCI Insight, 2024)
